# Test results reported in the supplement of paper PMC11061612.
# Key:
# Test in all cases: combination Emax (second highest fraction inhibited in the dose matrix, 72 h); higher = more inhibition; extreme values may be limits of the assay
# [1] = test system: BL-41 (Burkitt's Lymphoma)
# Method in brief: (§1)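 Cell lines in DMEM/F12 or RPMI with 10% FBS were plated in 1536-well plates, held 24 hours at 37°C, 5% CO2, then given two-drug dose matrices for 72 hours (DMSO typically 0.2%). Viability was read by CellTiter-Glo 2.0 luminescence and scaled as inhibition from 0 (vehicle wells) to 1 (blank wells). Combination Emax is the second-highest inhibition in the matrix; Bliss excess is observed combination effect minus expected EA + EB − EA·EB, EA and EB being single-agent effects.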
# [2] = test system: CAMA-1 (Breast Carcinoma)
# Method in brief: as §1
# [3] = test system: CHP-212 (Neuroblastoma)
# Method in brief: as §1
# [4] = test system: DiFi (Colorectal Carcinoma)
# Method in brief: as §1
# [5] = test system: ES8 (Ewing's Sarcoma)
# Method in brief: as §1
# [6] = test system: GR-ST (B-Lymphoblastic Leukemia)
# Method in brief: as §1
# [7] = test system: HDQ-P1 (Breast Carcinoma)
# Method in brief: as §1
# [8] = test system: HL-60 (Acute Myeloid Leukemia)
# Method in brief: as §1
# [9] = test system: K-562 (Chronic Myelogenous Leukemia)
# Method in brief: as §1
# [10] = test system: KARPAS-45 (T-Lymphoblastic Leukemia)
# Method in brief: as §1
# [11] = test system: KM12 (Colorectal Carcinoma)
# Method in brief: as §1
# [12] = test system: MKN28 (Gastric Carcinoma)
# Method in brief: as §1
# [13] = test system: MS751 (Cervical Carcinoma)
# Method in brief: as §1
# [14] = test system: NCI-H1792 (Lung Adenocarcinoma)
# Method in brief: as §1
# [15] = test system: NCI-H847 (Small Cell Lung Carcinoma)
# Method in brief: as §1
# [16] = test system: SR (Other Blood Carcinomas)
# Method in brief: as §1
# [17] = test system: SU-DHL-8 (B-Cell Non-Hodgkin's Lymphoma)
# Method in brief: as §1
# [18] = test system: SW837 (Colorectal Carcinoma)
# Method in brief: as §1
# [19] = test system: TE-6 (Esophageal Squamous Cell Carcinoma)
# Method in brief: as §1
# [20] = test system: WM-115 (Melanoma)
# Method in brief: as §1
Compound,combination Emax [1],combination Emax [2],combination Emax [3],combination Emax [4],combination Emax [5],combination Emax [6],combination Emax [7],combination Emax [8],combination Emax [9],combination Emax [10],combination Emax [11],combination Emax [12],combination Emax [13],combination Emax [14],combination Emax [15],combination Emax [16],combination Emax [17],combination Emax [18],combination Emax [19],combination Emax [20]
"CN(CCO)CC[C@H](CSc1ccccc1)Nc1ccc(S(=O)(=O)NC(=O)c2ccc(N3CCC([C@@H](O)c4ccccc4-c4ccc(Cl)cc4)CC3)cc2)cc1S(=O)(=O)C(F)(F)F [AZD4320] + C[C@@H](Nc1cc(F)cc(F)c1)c1cc(C(=O)N(C)C)cc2c(=O)cc(N3CCOCC3)oc12 [AZD8186] (first compound max 1 µM, 7x7, partner max 3 µM)",0.745,0.84,0.752,0.961,0.99,0.537,0.787,0.958,0.313,1,0.315,0.263,0.3,0.323,1,0.713,1,0.395,0.563,0.914
"CC1(C)CCC(CN2CCN(c3ccc(C(=O)NS(=O)(=O)c4ccc(NCC5CCOCC5)c([N+](=O)[O-])c4)c(Oc4cnc5[nH]ccc5c4)c3)CC2)=C(c2ccc(Cl)cc2)C1 [Venetoclax] + C[C@@H]1COCCN1C2=NC(=NC(=C2)C3(CC3)[S@](=N)(=O)C)C4=C5C=CNC5=NC=C4 [AZD6738] (first compound max 1 µM, 7x7, partner max 10 µM)",0.999,0.41,0.792,0.81,0.934,0.762,0.399,0.933,0.788,0.941,0.641,0.488,0.424,0.725,0.999,0.973,0.99,0.348,0.67,0.524
"CN(CCO)CC[C@H](CSc1ccccc1)Nc1ccc(S(=O)(=O)NC(=O)c2ccc(N3CCC([C@@H](O)c4ccccc4-c4ccc(Cl)cc4)CC3)cc2)cc1S(=O)(=O)C(F)(F)F [AZD4320] + Cc1cc2ncnn2cc1Nc1ncc2c(n1)n(C1CCOCC1)c(=O)n2C [AZD7648] (first compound max 1 µM, 7x7, partner max 10 µM)",0.203,0.229,0.379,0.784,0.57,0.371,0.522,0.923,0.17,0.991,0.226,0.153,0.146,0.287,1,0.393,0.942,0.201,0.524,0.489
"CCc1c2c(nc3ccc(O)cc13)-c1cc3c(c(=O)n1C2)COC(=O)[C@]3(O)CC [SN-38] + O=C(c1cc(Cc2n[nH]c(=O)c3ccccc23)ccc1F)N1CCN(C(=O)C2CC2)CC1 [Olaparib] (first compound max 0.3 µM, 7x7, partner max 10 µM)",1,0.299,,0.701,0.989,0.74,0.702,,0.672,,0.681,0.553,0.899,0.575,1,0.982,,0.506,,0.391
"CN(CCO)CC[C@H](CSc1ccccc1)Nc1ccc(S(=O)(=O)NC(=O)c2ccc(N3CCC([C@@H](O)c4ccccc4-c4ccc(Cl)cc4)CC3)cc2)cc1S(=O)(=O)C(F)(F)F [AZD4320] + C1CN(CCC1(C(=O)N[C@@H](CCO)C2=CC=C(C=C2)Cl)N)C3=NC=NC4=C3C=CN4 [Capivasertib] (first compound max 1 µM, 7x7, partner max 3 µM)",0.215,0.821,0.176,0.804,0.493,0.402,0.584,0.873,0.129,0.987,0.565,,0.132,0.0895,1,0.49,0.916,0.104,0.633,0.829
"Cc1c2c(nn1C)CSCc1cc(n(C)n1)CSc1cc(c3ccccc3c1)OCCCc1c(C(=O)O)n(C)c3c-2c(Cl)ccc13 [AZD5991] + C1CN(CCC1(C(=O)N[C@@H](CCO)C2=CC=C(C=C2)Cl)N)C3=NC=NC4=C3C=CN4 [Capivasertib] (first compound max 1 µM, 7x7, partner max 3 µM)",1,0.994,,0.438,0.679,0.38,0.232,1,0.374,1,0.553,0.12,0.855,0.302,0.78,0.993,0.673,0.121,0.811,0.584
